# Values quoted from earlier work, collected in US7247427B1, “Leptin assay” (Yeda Research and Development Co., Ltd., priority 1999, dated 2007).
# Test system: cultured adipocytes
# Details: no Angiopoietin-2 expressed in the absence of leptin
substance,measurement,value
"leptin: the product of the obese gene, expressed in adipocytes; regulates food intake and energy metabolism through its receptor OB-R",expression of the angiopoietin-2 gene,specifically induces the expression of the angiopoietin-2 gene
